# In ChEMBL document CHEMBL1141167, “Antitumor activity of new substituted 3-(5-imidazo[2,1-b]thiazolylmethylene)-2-indolinones and study of their effect on the cell cycle” (2005):
# “And” between values parts separate entries of the source, which are not always exact repeats. Identical values can stand only once.
# Assays:
# [1] = system: CNS cell; assay: Growth inhibitory concentration dissolved in DMSO against human CNS cell line at 10E-4 M concentration; type: functional
# [2] = system: Colon cell; assay: Total growth inhibition of human Colon cell line at 10E-4 M concentration; type: functional; parameters: unit not given here
# [3] = system: NSCLC; assay: Total growth inhibition of human NSCLC cell line at 10E-4 M concentration; type: functional
# [4] = system: Breast carcinoma cell; assay: Total growth inhibition of human Breast cell line at 10E-4 M concentration; type: functional
# [5] = system: Panel NCI-60 (60 carcinoma cell lines); assay: Total growth inhibition of human MG-MID cell line at 10E-4 M concentration; type: functional
# [6] = system: Ovarian carcinoma cell; assay: Total growth inhibition of human Ovarian cell line at 10E-4 M concentration; type: functional
# [7] = system: Melanoma cell; assay: Total growth inhibition of human Melanoma cell line at 10E-4 M concentration; type: functional
# [8] = system: Prostate cell; assay: Total growth inhibition of human Prostate cell line at 10E-4 M concentration; type: functional
# [9] = system: Prostate cell; assay: Growth inhibitory concentration dissolved in DMSO against human Prostate cell line at 10E-4 M concentration; type: functional
# [10] = system: Ovarian carcinoma cell; assay: Growth inhibitory concentration dissolved in DMSO against human Ovarian cell line at 10E-4 M concentration; type: functional
# [11] = system: Melanoma cell; assay: Growth inhibitory concentration dissolved in DMSO against human Melanoma cell line at 10E-4 M concentration; type: functional
# [12] = system: Colon cell; assay: Growth inhibitory concentration dissolved in DMSO against human Colon cell line at 10E-4 M concentration; type: functional
# [13] = system: NSCLC; assay: Growth inhibitory concentration dissolved in DMSO against human NSCLC cell line at 10E-4 M concentration; type: functional; parameters: unit not given here
# [14] = system: Renal cell; assay: Growth inhibitory concentration dissolved in DMSO against human Renal cell line at 10E-4 M concentration; type: functional; parameters: unit not given here
# [15] = system: Breast carcinoma cell; assay: Growth inhibitory concentration dissolved in DMSO against human Breast cell line at 10E-4 M concentration; type: functional
# [16] = system: Panel NCI-60 (60 carcinoma cell lines); assay: Growth inhibitory concentration dissolved in DMSO against human MG-MID cell line at 10E-4 M concentration; type: functional
# [17] = system: CNS cell; assay: Cytotoxic effect dissolved in DMSO against CNS cell line at 10E-4 M concentration; type: functional, Homo sapiens
# [18] = system: Colon cell; assay: Cytotoxic effect dissolved in DMSO against Colon cell line at 10E-4 M concentration; type: functional, Homo sapiens
# [19] = system: NSCLC; assay: Cytotoxic effect dissolved in DMSO against NSCLC cell line at 10E-4 M concentration; type: functional, Homo sapiens
# [20] = system: HT-29; assay: Percentage of Cells after administration of compound dissolved in DMSO (10e-4 M) towards colon adenocarcinoma cell line HT-29 in G2/M Phase after 24 Hours of Treatment [control = 10]; type: functional, Homo sapiens
# [21] = system: HT-29; assay: Percentage of Cells after administration of compound dissolved in DMSO (10e-5 M) towards colon adenocarcinoma cell line HT-29 in G2/M Phase after 24 Hours of Treatment [control = 10]; type: functional, Homo sapiens
# [22] = system: HT-29; assay: Percentage of Cells after administration of compound dissolved in DMSO (10e-6 M) towards colon adenocarcinoma cell line HT-29 in G2/M Phase after 24 Hours of Treatment [control = 10]; type: functional, Homo sapiens
# [23] = system: Renal cell; assay: Cytotoxic effect dissolved in DMSO against Renal cell line at 10E-4 M concentration; type: functional, Homo sapiens
# [24] = system: Breast carcinoma cell; assay: Cytotoxic effect dissolved in DMSO against Breast cell line at 10E-4 M concentration; type: functional, Homo sapiens
# [25] = system: Panel NCI-60 (60 carcinoma cell lines); assay: Cytotoxic effect dissolved in DMSO against MG-MID cell line at 10E-4 M concentration; type: functional, Homo sapiens
# [26] = system: Ovarian carcinoma cell; assay: Cytotoxic effect dissolved in DMSO against Ovarian cell line at 10E-4 M concentration; type: functional, Homo sapiens
# [27] = system: Melanoma cell; assay: Cytotoxic effect dissolved in DMSO against Melanoma cell line at 10E-4 M concentration; type: functional, Homo sapiens
# [28] = system: HT-29; assay: Percentage of Cells after administration of compound dissolved in DMSO (10e-7M) towards colon adenocarcinoma cell line HT-29 in G2/M Phase after 24 Hours of Treatment [control = 10]; type: functional, Homo sapiens
# [29] = system: HT-29; assay: Percentage of Cells after administration of compound dissolved in DMSO (10e-8 M) towards colon adenocarcinoma cell line HT-29 in G2/M Phase after 24 Hours of Treatment [control = 10]; type: functional, Homo sapiens
# [30] = system: Prostate cell; assay: Cytotoxic effect dissolved in DMSO against Prostate cell line at 10E-4 M concentration; type: functional, Homo sapiens
# [31] = system: CNS cell; assay: Growth inhibitory concentration dissolved in DMSO against human CNS cell line at 10E-3 M concentration; type: functional
# [32] = system: Colon cell; assay: Growth inhibitory concentration dissolved in DMSO against human Colon cell line at 10E-3 M concentration; type: functional
# [33] = system: CNS cell; assay: Total growth inhibition of human CNS cell line at 10E-3 M concentration; type: functional
# [34] = system: Colon cell; assay: Total growth inhibition of human Colon cell line at 10E-3 M concentration; type: functional
# [35] = system: NSCLC; assay: Total growth inhibition of human NSCLC cell line at 10E-3 M concentration; type: functional
# [36] = system: Renal cell; assay: Total growth inhibition of human Renal cell line at 10E-3 M concentration; type: functional
# [37] = system: Panel NCI-60 (60 carcinoma cell lines); assay: Total growth inhibition of human MG-MID cell line at 10E-3 M concentration; type: functional
# [38] = system: Breast carcinoma cell; assay: Total growth inhibition of human Breast cell line at 10E-3 M concentration; type: functional
# [39] = system: Leukemia cell; assay: Total growth inhibition of human Leukemia cell line at 10E-3 M concentration; type: functional
# [40] = system: Melanoma cell; assay: Total growth inhibition of human Melanoma cell line at 10E-3 M concentration; type: functional
# [41] = system: Ovarian carcinoma cell; assay: Total growth inhibition of human Ovarian cell line at 10E-3 M concentration; type: functional
# [42] = system: Prostate cell; assay: Total growth inhibition of human Prostate cell line at 10E-3 M concentration; type: functional
# [43] = system: Leukemia cell; assay: Growth inhibitory concentration dissolved in DMSO against human leukemia cell line at 10E-3 M concentration; type: functional
# [44] = system: Melanoma cell; assay: Growth inhibitory concentration dissolved in DMSO against human Melanoma cell line at 10E-3 M concentration; type: functional
# [45] = system: Prostate cell; assay: Growth inhibitory concentration dissolved in DMSO against human Prostate cell line at 10E-3 M concentration; type: functional
# [46] = system: NSCLC; assay: Growth inhibitory concentration dissolved in DMSO against human NSCLC cell line at 10E-3 M concentration; type: functional
# [47] = system: Renal cell; assay: Growth inhibitory concentration dissolved in DMSO against human Renal cell line at 10E-3 M concentration; type: functional
# [48] = system: Breast carcinoma cell; assay: Growth inhibitory concentration dissolved in DMSO against human Breast cell line at 10E-3 M concentration; type: functional
# [49] = system: Panel NCI-60 (60 carcinoma cell lines); assay: Growth inhibitory concentration dissolved in DMSO against human MG-MID cell line at 10E-3 M concentration; type: functional
# [50] = system: Ovarian carcinoma cell; assay: Growth inhibitory concentration dissolved in DMSO against human Ovarian cell line at 10E-3 M concentration; type: functional
# [51] = system: CNS cell; assay: Cytotoxic effect dissolved in DMSO against CNS cell line at 10E-3 M concentration; type: functional, Homo sapiens
# [52] = system: Colon cell; assay: Cytotoxic effect dissolved in DMSO against Colon cell line at 10E-3 M concentration; type: functional, Homo sapiens
# [53] = system: NSCLC; assay: Cytotoxic effect dissolved in DMSO against NSCLC cell line at 10E-3 M concentration; type: functional, Homo sapiens
# [54] = system: Breast carcinoma cell; assay: Cytotoxic effect dissolved in DMSO against Breast cell line at 10E-3 M concentration; type: functional, Homo sapiens
# [55] = system: Panel NCI-60 (60 carcinoma cell lines); assay: Cytotoxic effect dissolved in DMSO against MG-MID cell line at 10E-3 M concentration; type: functional, Homo sapiens
# [56] = system: Ovarian carcinoma cell; assay: Cytotoxic effect dissolved in DMSO against Ovarian cell line at 10E-3 M concentration; type: functional, Homo sapiens
# [57] = system: Leukemia cell; assay: Cytotoxic effect dissolved in DMSO against Leukemia cell line at 10E-3 M concentration; type: functional, Homo sapiens
# [58] = system: Melanoma cell; assay: Cytotoxic effect dissolved in DMSO against Melanoma cell line at 10E-3 M concentration; type: functional, Homo sapiens
# [59] = system: Prostate cell; assay: Cytotoxic effect dissolved in DMSO against Prostate cell line at 10E-3 M concentration; type: functional, Homo sapiens
# [60] = system: Renal cell; assay: Cytotoxic effect dissolved in DMSO against Renal cell line at 10E-3 M concentration; type: functional, Homo sapiens
smiles,measurement,setting,value
Cc1cn2c(/C=C3/C(=O)Nc4ccc(Cl)cc43)c(C)nc2s1,"pGI50 (-log GI50, M)",[1],6.13
same,TGI,[2],5.06 and 5.08
same,TGI,[3],4.65
same,TGI,[4],4.85
same,TGI,[5],4.81
same,TGI,[6],4.82
same,TGI,[7],4.6
same,TGI,[8],5.62
same,pGI50 (negative log molar GI50),[9],6.98
same,pGI50 (negative log of GI50 in M),[10],5.91
same,pGI50 (-log molar GI50),[11],6.21
same,pGI50 (negative log of molar GI50),[12],6.72
same,GI50,[13],6.17
same,GI50,[14],6.54
same,"pGI50 (-log GI50, M)",[15],6.51
same,GI50,[16],-6.42
same,LC50,[17],4.16
same,LC50,[18],4.34
same,LC50,[19],4.16
same,Activity,[20],61.6%
same,Activity,[21],86.2%
same,Activity,[22],72%
same,LC50,[23],4.06
same,LC50,[24],4.02
same,LC50,[25],4.15
same,LC50,[26],4.3
same,LC50,[27],4.06
same,Activity,[28],9.7%
same,Activity,[29],11.1%
same,LC50,[30],4.36
CC[C@]1(O)C[C@H]2CN(CCc3c([nH]c4ccccc34)[C@@](C(=O)OC)(c3cc4c(cc3OC)N(C=O)[C@H]3[C@@](O)(C(=O)OC)[C@H](OC(C)=O)[C@]5(CC)C=CCN6CC[C@]43[C@@H]65)C2)C1.O=S(=O)(O)O [VINCRISTINE SULFATE],pGI50,[31],6.9
same,pGI50,[32],7
same,pTGI,[33],5.2
same,pTGI,[34],5.4
same,pTGI,[35],4.8
same,pTGI,[36],4.7
same,pTGI,[37],5
same,pTGI,[38],5.1
same,pTGI,[39],4.8
same,pTGI,[40],5.1
same,pTGI,[41],4.7
same,pTGI,[42],5.2
same,pGI50,[43],7
same,pGI50,[44],6.8
same,pGI50,[45],6.9
same,pGI50,[46],6.6
same,pGI50,[47],6.5
same,pGI50,[48],6.5
same,pGI50,[49],6.7
same,pGI50,[50],6.5
same,LC50,[51],3.7
same,LC50,[52],4.1
same,LC50,[53],3.6
same,LC50,[54],3.5
same,LC50,[55],3.6
same,LC50,[56],3.5
same,LC50,[57],3.2
same,LC50,[58],3.6
same,LC50,[59],3.5
same,LC50,[60],3.6
